The target in this test is T1, MCU (Homo sapiens, UniProt Q8NE86).
T1 construct: endogenous in cells; host or cells: HeLa cells, permeabilized
T1 sequence (Q8NE86 51-351): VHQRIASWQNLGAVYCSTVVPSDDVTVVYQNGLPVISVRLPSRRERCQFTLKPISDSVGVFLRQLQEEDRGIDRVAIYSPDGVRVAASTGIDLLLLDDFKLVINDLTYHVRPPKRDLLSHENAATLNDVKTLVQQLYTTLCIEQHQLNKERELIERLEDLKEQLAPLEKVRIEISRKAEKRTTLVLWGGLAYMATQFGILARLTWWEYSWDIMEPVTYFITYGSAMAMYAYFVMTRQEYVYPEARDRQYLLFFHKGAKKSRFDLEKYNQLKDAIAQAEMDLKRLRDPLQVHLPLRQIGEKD
T1 sequence (Q9H4I9 48-107 partner limits assumed): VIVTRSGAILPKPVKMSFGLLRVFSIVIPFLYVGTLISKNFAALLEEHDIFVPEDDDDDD
The test can be described thus: MCU-mediated mCa2+ uptake in permeabilized cells (spectrofluorometry). In kind it is cell-based. Particulars: permeabilized cells (HeLa, 10 μM per FIG. 10H legend). As to the method:
Bacterial CorA forms a pentameric complex that selectively drives Mg2+ uptake in an electrogenic manner. […] Mrs2 is the eukaryotic homologue of CorA and contains two transmembrane domains with a well-conserved F/Y-G-M-N motif; therefore, CorA blockers were tested to determine if they alter Mrs2-mediated mMg^2+ uptake (Moomaw and Maguire, 2008). Digitonin permeabilized hepatocytes were utilized to measure the inhibitory effect and determine its IC50. Permeabilized cells were treated with CPACC followed by a 1 mM bolus of MgCl2 (FIG. 10B). A 1 mM Mg^2+ bolus was added after baseline recording, and the extramitochondrial Mg^2+ clearance was used as a read-out for Mrs2-mediated mMg^2+ uptake using Mag-Green as a Mg^2+ indicator. […] We next investigated Mrs2 inhibition in intact hepatocytes loaded with Mag-Green-AM. […] Next CPACC was examined to determine if it had any effect on MCU-mediated mCa^2+ uptake in permeabilized cells. […] The availability of the compound to intact cells was measured using graphite furnace atomic absorption spectroscopy (GFAAS) and bicinchoninic acid in parallel.
Spectrofluorimetric measurement of mitochondrial Mg^2+ and Ca^2+ dynamics and citrate mediated MagGreen fluorescence quenching. Fluorescence measurements were conducted in a multiwavelength excitation dual wavelength emission spectrofluorometer (Delta RAM, PTI, HORIBA). […]

SMILES strings stand for the structures.

Turning to `[NH2][Co]([NH2])([NH2])([NH2])([NH2])[Cl]` [CPACC, chloropentaammine cobalt (III) chloride], the “MCU-mediated mCa^2+ uptake” value is “did not inhibit”.
